Data from PubChem BioAssay (NCI).
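GI50 = concentration required for 50% inhibition of growth. Definition used: TGI = concentration required for complete inhibition of growth.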

Assays:
Assay in all cases: NCI-60 cell line screen, 384-well format
[1] = tested on: HS 578T breast
[2] = tested on: HOP-92 NSCLC
[3] = tested on: TK-10 renal
[4] = tested on: SF-539 CNS
[5] = tested on: NCI-H23 lung
[6] = tested on: KM12 colon
[7] = tested on: 786-0 renal
[8] = tested on: SF-268 CNS
[9] = tested on: MDA-MB-231 breast
[10] = tested on: MOLT-4 leukemia
[11] = tested on: A549 NSCLC
[12] = tested on: OVCAR-4 ovarian
[13] = tested on: SNB-75 CNS
[14] = tested on: RXF 393 renal
[15] = tested on: ACHN renal
[16] = tested on: A498 renal
[17] = tested on: SW-620 colon
[18] = tested on: LOX IMVI melanoma
[19] = tested on: BT-549 breast
[20] = tested on: EKVX NSCLC
[21] = tested on: SK-OV-3 ovarian
[22] = tested on: HT29 colon
[23] = tested on: RPMI-8226 leukemia
[24] = tested on: MDA-MB-468 breast
[25] = tested on: M14 melanoma
[26] = tested on: IGROV1 ovarian
[27] = tested on: HOP-62 NSCLC
[28] = tested on: MCF7 breast
[29] = tested on: SK-MEL-28 melanoma
[30] = tested on: UACC-257 melanoma
[31] = tested on: K-562 leukemia
[32] = tested on: MDA-MB-435 melanoma
[33] = tested on: OVCAR-5 ovarian
[34] = tested on: COLO 205 colon
[35] = tested on: HL-60(TB) leukemia
[36] = tested on: U251 glioblastoma
[37] = tested on: DU-145 prostate
[38] = tested on: SK-MEL-5 melanoma
[39] = tested on: NCI-H226 lung
[40] = tested on: PC-3 prostate
[41] = tested on: SNB-19 CNS
[42] = tested on: HCT-15 colon
[43] = tested on: HCT-116 colon
[44] = tested on: NCI/ADR-RES ovarian
[45] = tested on: NCI-H522 lung
[46] = tested on: OVCAR-3 ovarian
[47] = tested on: UO-31 renal
[48] = tested on: NCI-H322M lung
[49] = tested on: SF-295 CNS
[50] = tested on: CAKI-1 renal
[51] = tested on: T-47D breast
[52] = tested on: SN12C renal
[53] = tested on: MALME-3M melanoma
[54] = tested on: CCRF-CEM leukemia
[55] = tested on: HCC-2998 colon
[56] = tested on: UACC-62 melanoma
[57] = tested on: OVCAR-8 ovarian
[58] = tested on: NCI-H460 NSCLC
[59] = tested on: SK-MEL-2 melanoma
[60] = tested on: SR leukemia

CC(C)(F)C[C@H](N[C@@H](c1ccc(-c2ccc(S(C)(=O)=O)cc2)cc1)C(F)(F)F)C(=O)NC1(C#N)CC1
GI50 [1]: 21.2 µM
TGI [1]: 45.3 µM
GI50 [2]: 11.2 µM
TGI [2]: 28.9 µM
GI50 [3]: 33.1 µM
TGI [3]: 97.9 µM
GI50 [4]: 23.1 µM
TGI [4]: 44.1 µM
GI50 [5]: 30.9 µM
TGI [5]: 83 µM
GI50 [6]: 43.6 µM
TGI [6]: > 100 µM
GI50 [7]: 21.9 µM
TGI [7]: 53.5 µM
GI50 [8]: 22.1 µM
TGI [8]: 41 µM
GI50 [9]: 39.6 µM
TGI [9]: > 100 µM
GI50 [10]: 41.1 µM
TGI [10]: > 100 µM
GI50 [11]: 34.9 µM
TGI [11]: > 100 µM
GI50 [12]: 19.8 µM
TGI [12]: 38 µM
GI50 [13]: 20.5 µM
TGI [13]: 37.3 µM
GI50 [14]: 18.3 µM
TGI [14]: 35.3 µM
GI50 [15]: > 100 µM
TGI [15]: > 100 µM
GI50 [16]: 21.3 µM
TGI [16]: 46.7 µM
GI50 [17]: > 100 µM
TGI [17]: > 100 µM
GI50 [18]: 59.3 µM
TGI [18]: > 100 µM
GI50 [19]: 39.7 µM
TGI [19]: > 100 µM
GI50 [20]: 39.2 µM
TGI [20]: > 100 µM
GI50 [21]: 27.3 µM
TGI [21]: 69.6 µM
GI50 [22]: > 100000 nM
TGI [22]: > 100 µM
GI50 [23]: 55.9 µM
TGI [23]: > 100 µM
GI50 [24]: 39.4 µM
TGI [24]: > 100 µM
GI50 [25]: 71.5 µM
TGI [25]: > 100 µM
GI50 [26]: > 100 µM
TGI [26]: > 100 µM
GI50 [27]: 22.8 µM
TGI [27]: 63 µM
GI50 [28]: 27.3 µM
TGI [28]: 91.1 µM
GI50 [29]: 40.9 µM
TGI [29]: > 100 µM
GI50 [30]: 26.7 µM
TGI [30]: 55.4 µM
GI50 [31]: > 100 µM
TGI [31]: > 100 µM
GI50 [32]: 96.2 µM
TGI [32]: > 100 µM
GI50 [33]: > 100 µM
TGI [33]: > 100 µM
GI50 [34]: > 100 µM
TGI [34]: > 100 µM
GI50 [35]: > 100 µM
TGI [35]: > 100 µM
GI50 [36]: 24.7 µM
TGI [36]: 55.5 µM
GI50 [37]: 46.4 µM
TGI [37]: > 100 µM
GI50 [38]: 23 µM
TGI [38]: 55.8 µM
GI50 [39]: 23.5 µM
TGI [39]: 54.6 µM
GI50 [40]: 41.3 µM
TGI [40]: > 100 µM
GI50 [41]: 35.7 µM
TGI [41]: 92.4 µM
GI50 [42]: > 100 µM
TGI [42]: > 100 µM
GI50 [43]: > 100 µM
TGI [43]: > 100 µM
GI50 [44]: 88.1 µM
TGI [44]: > 100 µM
GI50 [45]: 21.4 µM
TGI [45]: 40.2 µM
GI50 [46]: 31.1 µM
TGI [46]: 76.7 µM
GI50 [47]: > 100 µM
TGI [47]: > 100 µM
GI50 [48]: 49.8 µM
TGI [48]: > 100 µM
GI50 [49]: 22.9 µM
TGI [49]: 63.4 µM
GI50 [50]: 30.5 µM
TGI [50]: > 100 µM
GI50 [51]: 36.6 µM
TGI [51]: > 100 µM
GI50 [52]: 34.9 µM
TGI [52]: > 100 µM
GI50 [53]: 33.7 µM
TGI [53]: 86.9 µM
GI50 [54]: > 100 µM
TGI [54]: > 100 µM
GI50 [55]: > 100 µM
TGI [55]: > 100 µM
GI50 [56]: 42.1 µM
TGI [56]: > 100 µM
GI50 [57]: 20.7 µM
TGI [57]: 46.1 µM
GI50 [58]: 22.4 µM
TGI [58]: 53.8 µM

N#Cc1ncc(N2C(=O)C3(CCC3)N(c3ccc(OC4CCNCC4)nc3)C2=S)cc1C(F)(F)F
GI50 [1]: 11.5 µM
TGI [1]: 23.6 µM
GI50 [2]: 12.7 µM
TGI [2]: 25.4 µM
GI50 [3]: 7.64 µM
TGI [3]: 20.1 µM
GI50 [4]: 12.4 µM
TGI [4]: 24.9 µM
GI50 [5]: 11 µM
TGI [5]: 23 µM
GI50 [59]: 5.98 µM
TGI [59]: 17.9 µM
GI50 [6]: 17.1 µM
TGI [6]: 30.9 µM
GI50 [7]: 12 µM
TGI [7]: 24.4 µM
GI50 [8]: 13.4 µM
TGI [8]: 26.3 µM
GI50 [9]: 16.1 µM
TGI [9]: 29.6 µM
GI50 [10]: 10.1 µM
TGI [10]: 21.7 µM
GI50 [11]: 16.7 µM
TGI [11]: 30.5 µM
GI50 [12]: 13.6 µM
TGI [12]: 26.5 µM
GI50 [13]: 14.5 µM
TGI [13]: 27.7 µM
GI50 [14]: 2.63 µM
TGI [14]: 7.32 µM
GI50 [15]: 15.3 µM
TGI [15]: 28.7 µM
GI50 [16]: 10.8 µM
TGI [16]: 22.7 µM
GI50 [17]: 14.5 µM
TGI [17]: 27.8 µM
GI50 [19]: 11.1 µM
TGI [19]: 23.1 µM
GI50 [20]: 10.2 µM
TGI [20]: 22 µM
GI50 [21]: 18.1 µM
TGI [21]: 32.2 µM
GI50 [22]: 2880 nM
TGI [22]: 8.52 µM
GI50 [24]: 10.6 µM
TGI [24]: 22.4 µM
GI50 [25]: 3 µM
TGI [25]: 8.44 µM
GI50 [26]: 14.4 µM
TGI [26]: 27.7 µM
GI50 [27]: 20.9 µM
TGI [27]: 35.3 µM
GI50 [28]: 4.76 µM
TGI [28]: 16.6 µM
GI50 [29]: 2.32 µM
TGI [29]: 5.21 µM
GI50 [30]: 1.99 µM
TGI [30]: 3.79 µM
GI50 [31]: 4.27 µM
TGI [31]: 16.1 µM
GI50 [32]: 13.4 µM
TGI [32]: 26.3 µM
GI50 [33]: 13.8 µM
TGI [33]: 27 µM
GI50 [34]: 15.1 µM
TGI [34]: 28.4 µM
GI50 [35]: 3.75 µM
TGI [35]: 15.8 µM
GI50 [36]: 17.2 µM
TGI [36]: 31 µM
GI50 [37]: 14.5 µM
TGI [37]: 27.9 µM
GI50 [38]: 11.8 µM
TGI [38]: 24.1 µM
GI50 [39]: 8.62 µM
TGI [39]: 20.7 µM
GI50 [40]: 14.4 µM
TGI [40]: 27.5 µM
GI50 [41]: 19.1 µM
TGI [41]: 35.3 µM
GI50 [42]: 5.19 µM
TGI [42]: 16.6 µM
GI50 [43]: 8.22 µM
TGI [43]: 20.7 µM
GI50 [45]: 17.5 µM
TGI [45]: 31.3 µM
GI50 [46]: 14 µM
TGI [46]: 27.1 µM
GI50 [47]: 14.7 µM
TGI [47]: 27.9 µM
GI50 [48]: 17.9 µM
TGI [48]: 32.5 µM
GI50 [49]: 18.6 µM
TGI [49]: 32.6 µM
GI50 [50]: 5.96 µM
TGI [50]: 18.3 µM
GI50 [51]: 8.96 µM
TGI [51]: 21.1 µM
GI50 [52]: 15.5 µM
TGI [52]: 28.9 µM
GI50 [53]: 2.68 µM
TGI [53]: 6.23 µM
GI50 [56]: 2.03 µM
TGI [56]: 3.93 µM
GI50 [60]: 1900 nM
TGI [60]: 3.91 µM
GI50 [57]: 14.5 µM
TGI [57]: 27.7 µM
GI50 [58]: 11.2 µM
TGI [58]: 23.4 µM
